From US20140323349A1, “COMPOSITIONS AND METHODS FOR MONITORING AND DETECTING CANCEROUS CONDITIONS” (PHIGENIX, INC., priority 2011, published 2014)
“Also recorded” adds a separate entry of the source.

Assays:
Assay type in all cases: cell-based, human
PAX2 protein = assay: Western blot analysis of PAX2 protein; conditions: DU145; 5 uM Los, 25 uM U0126, 20 uM PD98059, 250 μM AICAR
Method: Briefly, cells were harvested by trypsinization and washed twice with PBS. Lysis buffer was prepared according to the manufacturer's instructions (Sigma), and was then added to the cells. Following a 15 minute incubation period at 4° C. on an orbital shaker, cell lysate were then collected and centrifuged for 10 minutes at 12000×g to pellet cellular debris. The protein-containing supernatant were then collected and quantitated. Next, 25 μg protein extract was loaded onto an 8-16% gradient SDS-PAGE (Novex). Following electrophoresis, proteins were transferred to PVDF membranes, and then blocked with 5% nonfat dry milk in TTBS (0.05% Tween 20 and 100 mM Tris-C1) for 1 hour. Blots were then probed with rabbit anti-PAX2 primary antibody (Zymed, San Francisco, Calif.) at a 1:2000 dilution. After washing, the membranes were incubated with anti-rabbit antibody conjugated to horseradish peroxidase (HRP) (dilution 1:5000; Sigma), and signal detection was visualized using chemilluminescence reagents (Pierce) on an Alpha Innotech Fluorchem 8900. As a control, blots were stripped and reprobed with mouse anti-β-actin primary antibody (1:5000; Sigma-Aldrich) and HRP-conjugated anti-mouse secondary antibody (1:5000; Sigma-Aldrich) and signal detection was again visualized.
(§1) Western blot analysis was performed as described in Example 2. Blots were then probed with primary antibody (anti-PAX2, -phospho-PAX2, -JNK, -phospho-JNK, -ERK1/2, or -phospho-ERK1/2) (Zymed, San Francisco, Calif.) at 1:1000-2000 dilutions. After washing, the membranes were incubated with anti-rabbit antibody conjugated to horseradish peroxidase (HRP) (dilution 1:5000; Sigma), and signal detection was visualized using chemilluminescence reagents (Pierce) on an Alpha Innotech Fluorchem 8900. As a control, blots were stripped and re-probed with mouse anti-β-actin primary antibody (1:5000; Sigma-Aldrich) and HRP-conjugated anti-mouse secondary antibody (1:5000; Sigma-Aldrich), and signal detection was again visualized.

phospho-STAT3 = assay: Western blot of phospho-STAT3; conditions: DU145
Method: as §1, with “Blots were then probed with primary antibody (anti-PAX2, -phospho-PAX2, -JNK, -phospho-JNK, -ERK1/2, or -phospho-ERK1/2) (Zymed, San Francisco, Calif.) at 1:1000-2000 dilutions.” left out

phospho-PAX2 = assay: Western blot of phospho-PAX2; conditions: DU145
Method: as §1, with “Blots were then probed with primary antibody (anti-PAX2, -phospho-PAX2, -JNK, -phospho-JNK, -ERK1/2, or -phospho-ERK1/2) (Zymed, San Francisco, Calif.) at 1:1000-2000 dilutions.” left out

PAX2 = PAX2 expression after treatment with AngII or receptor blockers; conditions: for reduction of PAX2 expression: versus untreated control
Method: Western blot analysis was performed as described in Example 2. […] After washing, the membranes were incubated with anti-rabbit antibody conjugated to horseradish peroxidase (HRP) (dilution 1:5000; Sigma), and signal detection was visualized using chemilluminescence reagents (Pierce) on an Alpha Innotech Fluorchem 8900. As a control, blots were stripped and re-probed with mouse anti-β-actin primary antibody (1:5000; Sigma-Aldrich) and HRP-conjugated anti-mouse secondary antibody (1:5000; Sigma-Aldrich), and signal detection was again visualized. Quantitative real-time RT-PCR was performed as described in Example 1 to verify changes in gene expression following PAX2 knockdown in PC3 and DU145 prostate cancer cell lines and the hPrEC normal prostate epithelial cells. Forty cycles of PCR were performed under standard conditions using an annealing temperature of 60° C. Quantification was determined by the cycle number where exponential amplification began (threshold value) and averaged from the values obtained from the triplicate repeats. There was an inverse relationship between message level and threshold value. In addition, GAPDH was used as a housekeeping gene to normalize the initial content of total cDNA. Relative expression was calculated as the ratio between each genes and GAPDH. All reactions were carried out in triplicate.

DU145 cells = assay: [3H]thymidine incorporation proliferation assay
Method: Proliferation of cells was determined by [^3H] thymidine ribotide ([3H]TdR) incorporation into DNA. 0.5×10^6 cells/well of suspension DU145 cells were plated in their appropriate media. Cells were incubated for 72 h with or without the presence of AngII at the indicated concentrations. Cells were exposed to 37 kBq/ml [methyl-3H]thymidine in the same medium for 6 h. The adherent cells were fixed by 5% trichloroacetic acid and lysed in SDS/NaOH lysis buffer overnight. Radioactivity was measured by Beckman LS3801 liquid scintillation counter (Canada). Suspension cell cultures were harvested by cell harvester (Packard Instrument Co., Meriden, Conn.), and radioactivity was measured by 1450 microβ liquid scintillation counter (PerkinElmer Life Sciences).

phospho-ERK 1/2 = assay: Western blot of phospho-ERK 1/2; conditions: DU145
Method: as §1, with “Blots were then probed with primary antibody (anti-PAX2, -phospho-PAX2, -JNK, -phospho-JNK, -ERK1/2, or -phospho-ERK1/2) (Zymed, San Francisco, Calif.) at 1:1000-2000 dilutions.” left out

ERK = assay: Western blot of ERK; conditions: DU145
Method: as §1, with “Blots were then probed with primary antibody (anti-PAX2, -phospho-PAX2, -JNK, -phospho-JNK, -ERK1/2, or -phospho-ERK1/2) (Zymed, San Francisco, Calif.) at 1:1000-2000 dilutions.” left out

phospho-JNK = assay: Western blot of phospho-JNK; conditions: DU145
Method: as §1, with “Blots were then probed with primary antibody (anti-PAX2, -phospho-PAX2, -JNK, -phospho-JNK, -ERK1/2, or -phospho-ERK1/2) (Zymed, San Francisco, Calif.) at 1:1000-2000 dilutions.” left out

DEFB1 = assay: QRT-PCR of DEFB1 (hBD-1) expression; conditions: 10 μM
Method: Briefly, total RNA was isolated using the SV Total RNA Isolation System (Promega, Madison, Wis.) from approximately 1×10^6 cells harvested by trypsinizing. Cells were lysed and total RNA was isolated by centrifugation through spin columns. For cells collected by LCM, total RNA was isolated using the PicoPure RNA Isolation Kit (Arcturus Biosciences, Mt. View, Calif.) following the manufacturer's protocol. Total RNA (0.5 μg per reaction) from both sources was reverse transcribed into cDNA utilizing random primers (Promega). AMV Reverse Transcriptase II enzyme (500 units per reaction; Promega) was used for first strand synthesis and Tfl DNA Polymerase for second strand synthesis (500 units per reaction; Promega) as per the manufacturer's protocol. In each case, 50 pg of cDNA was used per ensuing PCR reaction. Two-step QRT-PCR was performed on cDNA generated using the MultiScribe Reverse Transcripatase from the TaqMan Reverse Transcription System and the SYBR® Green PCR Master Mix (Applied Biosystems).
Forty cycles of PCR were performed under standard conditions using an annealing temperature of 56° C. In addition, β-actin (Table 2) was amplified as a housekeeping gene to normalize the initial content of total cDNA. […]
Quantitative real-time RT-PCR was performed as described in Example 1 to verify changes in gene expression following PAX2 knockdown in PC3 and DU145 prostate cancer cell lines and the hPrEC normal prostate epithelial cells. […] Quantification was determined by the cycle number where exponential amplification began (threshold value) and averaged from the values obtained from the triplicate repeats. […] Relative expression was calculated as the ratio between each genes and GAPDH. […]
QRT-PCR was performed as previously described (Gibson et al., 2007). […] Gene expression in benign prostate tissue samples was calculated as the expression ratio compared to β-actin. Levels of hBD-1 expression in malignant prostate tissue, hPREC prostate primary culture, and prostate cancer cell lines before and after induction were calculated relative to the average level of hBD-1 expression in hPrEC cells. […]

COc1cccc(-c2cc(=O)c3ccccc3o2)c1N [PD98059]
PAX2 expression / protein levels (PAX2 protein): decreased PAX2; also recorded: suppress PAX2 protein levels | phospho-STAT3 protein levels (phospho-STAT3): reduced phospho-STAT3 protein levels; also recorded: suppress phospho-STAT3 protein levels | phospho-PAX2 protein levels (phospho-PAX2): significant decrease or suppression of phospho-PAX2 protein levels; also recorded: suppress phospho-PAX2 protein expression levels

NC(=O)c1ncn([C@@H]2O[C@H](CO)[C@@H](O)[C@H]2O)c1N [AICAR, 5-Aminoimidazole-4-carboxamide-1-β-4-ribofuranoside]
PAX2 expression / protein levels (PAX2 protein): suppression of PAX2 pression expression; also recorded: suppress PAX2 protein levels | phospho-STAT3 protein levels (phospho-STAT3): suppressed; also recorded: suppress phospho-STAT3 protein levels | phospho-PAX2 protein levels (phospho-PAX2): suppression; also recorded: suppress phospho-PAX2 protein expression levels

Cc1cc(Cn2cnc3c2C[C@@H](C(=O)O)N(C(=O)C(c2ccccc2)c2ccccc2)C3)ccc1N(C)C [PD123319]
increase in PAX2 expression (PAX2; DU145, 48 hours): 7 fold | increase in PAX2 expression (PAX2; DU145, 96 hours): 8 fold

CCCCc1nc(Cl)c(CO)n1Cc1ccc(-c2ccccc2-c2nn[nH]n2)cc1 [Los, Losartan]
PAX2 expression / protein levels (PAX2 protein): significant reduction of PAX2 expression; also recorded: suppress PAX2 protein levels | decrease in proliferation rate (DU145 cells; DU145): 50% | effect on AngII-induced proliferation (DU145 cells; DU145, pre-treating for 30 min): suppressed the effect of AngII on proliferation | effect on AngII effect on PAX2 expression (PAX2; DU145): blocks the effect of Angiotensin II (AngII) effect on PAX2 expression | reduction of PAX2 expression (PAX2; DU145, 48 hours): 37% | reduction of PAX2 expression (PAX2; DU145, 72 hours): 50% | phospho-ERK (phospho-ERK 1/2): reduced the amount of phospho-ERK; also recorded: suppresses phospho-ERK 1/2 and PAX2 protein levels | ERK protein levels (ERK): no effect on ERK protein levels | phospho-STAT3 protein levels (phospho-STAT3): reduced phospho-STAT3 protein levels; also recorded: suppress phospho-STAT3 protein levels | phospho-PAX2 protein levels (phospho-PAX2): significant decrease or suppression of phospho-PAX2 protein levels; also recorded: suppress phospho-PAX2 protein expression levels | phospho-JNK protein levels (phospho-JNK): did not decrease phospho-JNK protein levels; also recorded: failed to decrease phospho-JNK protein levels

N#CC(=C(/N)Sc1ccccc1N)/C(C#N)=C(\N)Sc1ccccc1N [Drug U0126, U0126]
PAX2 expression / protein levels (PAX2 protein): significant reduction of PAX2 expression; also recorded: suppress PAX2 protein levels | phospho-STAT3 protein levels (phospho-STAT3): reduced phospho-STAT3 protein levels; also recorded: suppress phospho-STAT3 protein levels | phospho-PAX2 protein levels (phospho-PAX2): significant decrease or suppression of phospho-PAX2 protein levels; also recorded: suppress phospho-PAX2 protein expression levels | phospho-JNK protein levels (phospho-JNK): did not decrease phospho-JNK protein levels; also recorded: failed to decrease phospho-JNK protein levels

Angiotensin II (DRVYIHPF) [AngII]
decrease in DEFB1 expression relative to untreated hPrEC cells (DEFB1; 72 hours): 35% | decrease in DEFB1 expression relative to untreated hPrEC cells (DEFB1; 96 hours): 50% | increase in DEFB1 relative to untreated hPrEC cells (DEFB1; 96 hours): 79% | proliferation rate (DU145 cells; DU145, AngII treatment): two- to three-fold increase; also recorded: increases DU145 cell proliferation | PAX2 expression (PAX2; DU145, 30 min to 48 hour AngII treatment): progressively increased over time | increase in PAX2 expression relative to untreated hPrEC cells (PAX2; hPrEC, 10 μM, 72 hours): 66% | PAX2 expression in hPrEC as % of PAX2 levels in PC3 cells (PAX2; hPrEC, 72 hours): 77% | PAX2 expression in hPrEC as % of PAX2 expression in PC3 cells (PAX2; hPrEC, 96 hours): 89%
